Test results as given in paper PMC10257182, “Discovery of senolytics using machine learning” (Nature Communications, 2023).
Values joined by “and” are separate entries in the source; they are usually repeats but may differ in a detail not shown here. Equal entries are not always repeated.

System: non-senescent control IMR90 ER:RAS cells
Assay: Nuclei count (Hoechst, high content imaging) senolytic assay, OIS model, non-senescent control cells
Assay type: cell-based, human
Settings: for Mean % Cell Survival: mean n=3 (Fig 3C)
Source text: To test for senolytic activity, we compared the effect of each compound on the total cell number (automated high content image-based analysis of total number of nuclei per well) in non-senescent and senescent IMR90 ER:RAS cultures treated with the top hits from the computational screen (Figs. 2e and 3a–d and Supplementary Fig. 4a–c). The drop in cell number compared to untreated controls is indicated by the nuclei count and reflects cell death[13],[15]. As positive control, we employed ouabain, a cardiac glycoside with well characterised senolytic activity.
We performed experimental validation of the compounds with z-score > 8 (Fig. 2e). […] We employed two cellular models of senescence: one of OIS and a second one of TIS. For the OIS case, we utilised IMR90 ER:RAS cells with 4-OHT at 100 nM. […] For the TIS model, we used A549 cells with etoposide at 100 μM. The exposure of the cells to etoposide lasted 48 h, after which period the cells were cultivated for a further three days with normal media.
IMR90 (CCL-186) human foetal lung fibroblasts and A549 (CCL-185) human lung adenocarcinoma cells were obtained from the American Type Culture Collection (ATCC, Manassas, VA). The cell lines were confirmed to be mycoplasma negative (Lonza MycoAlert, cat #LT07-118). IMR90 ER:RAS is a derivative of IMR90 cells expressing a switchable version of oncogenic H-Ras[84]. IMR90 ER:RAS and A549 cells were maintained in Dulbecco’s Modified Eagle Medium (DMEM, ThermoFisher) supplemented with foetal bovine serum (10%), L-glutamine (2 mM, ThermoFisher), and antibiotic-antimycotic solution (1%, ThermoFisher) and incubated under standard tissue culture conditions (37 °C and 5% CO2). For induction of the senescent phenotype, IMR90-ER:RAS cells were cultured in hydroxytamoxifen (4-OHT) (Sigma) added media at 100 nM final concentration. IMR90 were kept in culture for over 27 passages for replicative senescence. Cells were tested for mycoplasma on a regular basis.
Cells were seeded (50 μL per well) into 384-well plates (IMR90 ER:RAS cells in Nunc Optical Bottom Polybase Microplates [#142761, Thermo Scientific, Rochester, NY] and A549 cells in CELLSTAR Cell Culture Microplates [#781091, Greiner Bio-One, Kremsmünster, Austria]). Cells were incubated under standard tissue culture conditions for 24 h before the addition of compounds. Passage 14 IMR90 ER:RAS cells were seeded at 1300 cells per well in the control condition, and at 1600 cells per well in the senescent case. Passage 34 A549 cells were seeded at 7000 cells per well in the control condition, and at 10,000 cells per well in the senescent case.
Dose response plates were prepared with a DMSO control and a 10-point […] concentration range, and added to the compounds using a D300e digital dispenser (Tecan Trading AG, Switzerland) at a final concentration of between 10 μM and 10 nM. Every screened condition was carried out in triplicate. After 72 h of incubation with exposure to the compounds, cells were fixed by the addition of an equal volume of formaldehyde (8%, 50 μL; #BP531-500, Fisher Bioreagents, Fisher Scientific, Loughborough, Leicestershire) to the existing media, incubated at room temperature (30 min), and washed three times in phosphate-buffered saline (PBS). Cells were then permeabilised in Triton-X100 (0.1%, 50 μL) and incubated at room temperature (30 min) followed by three more washes with PBS.
Cells were stained with Hoechst 33342 for nuclei count (excitation/emission wavelength at 387/447 […], DAPI channel, original concentration at 10 mg/ml, final concentration at 2 μg/ml; H1399, Molecular Probes, Eugene, OR). The staining solution was prepared in bovine serum albumin solution (10%). The staining solution was added to each well (30 μL) and incubated in the dark at room temperature (30 min), followed by three washes with PBS and no final aspiration. Plates were foil sealed.

Compound: Cc1c(NC(=O)OC[C@@H]2COCCN2)cn2ncnc(Nc3ccc4c(cnn4Cc4cccc(F)c4)c3)c12.Cl.Cl [BMS 599626 2HCL, BMS 599626 dihydrochloride]
- % Cell Survival (Control cells, log (dose) [M] -5, individual replicates, SUP FIG 4C): 105.353% and 91.3279% and 103.579%
- % Cell Survival (Control cells, log (dose) [M] -5.33, individual replicates, SUP FIG 4C): 86.7238% and 73.5321% and 81.9018%
- % Cell Survival (Control cells, log (dose) [M] -5.66, individual replicates, SUP FIG 4C): 118.415% and 87.5339% and 100.613%
- % Cell Survival (Control cells, log (dose) [M] -6, individual replicates, SUP FIG 4C): 100.107% and 87.4435% and 90.184%
- % Cell Survival (Control cells, log (dose) [M] -6.33, individual replicates, SUP FIG 4C): 111.884% and 90.2439% and 100.716%
- % Cell Survival (Control cells, log (dose) [M] -6.66, individual replicates, SUP FIG 4C): 106.852% and 86.4499% and 109.816%
- % Cell Survival (Control cells, log (dose) [M] -7, individual replicates, SUP FIG 4C): 101.927% and 74.8871% and 92.5358%
- % Cell Survival (Control cells, log (dose) [M] -7.33, individual replicates, SUP FIG 4C): 103.426% and 89.7922% and 99.3865%
- % Cell Survival (Control cells, log (dose) [M] -7.66, individual replicates, SUP FIG 4C): 119.807% and 91.5989% and 105.93%
- % Cell Survival (Control cells, log (dose) [M] -8, individual replicates, SUP FIG 4C): 100.749% and 77.0551% and 102.454%
- Mean % Cell Survival (Control, log (dose) [M] -5, 72 h): 100.087%
- Mean % Cell Survival (Control, log (dose) [M] -5.33, 72 h): 80.7192%
- Mean % Cell Survival (Control, log (dose) [M] -5.66, 72 h): 102.188%
- Mean % Cell Survival (Control, log (dose) [M] -6, 72 h): 92.5782%
- Mean % Cell Survival (Control, log (dose) [M] -6.33, 72 h): 100.948%
- Mean % Cell Survival (Control, log (dose) [M] -6.66, 72 h): 101.039%
- Mean % Cell Survival (Control, log (dose) [M] -7, 72 h): 89.7834%
- Mean % Cell Survival (Control, log (dose) [M] -7.33, 72 h): 97.535%
- Mean % Cell Survival (Control, log (dose) [M] -7.66, 72 h): 105.779%
- Mean % Cell Survival (Control, log (dose) [M] -8, 72 h): 93.4195%
- % Cell Survival (Control, log (dose) [M] -5): 100.351% and 111.029% and 102.815%
- % Cell Survival (Control, log (dose) [M] -5.33): 101.964% and 126.351% and 107.239%
- % Cell Survival (Control, log (dose) [M] -5.66): 131.276% and 125.833% and 112.534%
- % Cell Survival (Control, log (dose) [M] -6): 101.823% and 113.768% and 114.812%
- % Cell Survival (Control, log (dose) [M] -6.33): 107.574% and 113.397% and 102.681%
- % Cell Survival (Control, log (dose) [M] -6.66): 98.317% and 111.029% and 104.088%
- % Cell Survival (Control, log (dose) [M] -7): 103.156% and 106.366% and 100.335%
- % Cell Survival (Control, log (dose) [M] -7.33): 103.086% and 108.882% and 96.7828%
- % Cell Survival (Control, log (dose) [M] -7.66): 97.5456% and 102.221% and 100.201%
- % Cell Survival (Control, log (dose) [M] -8): 96.0028% and 99.7779% and 101.072%
